For one experiment, the target named is T1, DDR2 (Homo sapiens, UniProt Q16832).
T1 construct: purchased Invitrogen
T1 sequence (Q16832 22-855): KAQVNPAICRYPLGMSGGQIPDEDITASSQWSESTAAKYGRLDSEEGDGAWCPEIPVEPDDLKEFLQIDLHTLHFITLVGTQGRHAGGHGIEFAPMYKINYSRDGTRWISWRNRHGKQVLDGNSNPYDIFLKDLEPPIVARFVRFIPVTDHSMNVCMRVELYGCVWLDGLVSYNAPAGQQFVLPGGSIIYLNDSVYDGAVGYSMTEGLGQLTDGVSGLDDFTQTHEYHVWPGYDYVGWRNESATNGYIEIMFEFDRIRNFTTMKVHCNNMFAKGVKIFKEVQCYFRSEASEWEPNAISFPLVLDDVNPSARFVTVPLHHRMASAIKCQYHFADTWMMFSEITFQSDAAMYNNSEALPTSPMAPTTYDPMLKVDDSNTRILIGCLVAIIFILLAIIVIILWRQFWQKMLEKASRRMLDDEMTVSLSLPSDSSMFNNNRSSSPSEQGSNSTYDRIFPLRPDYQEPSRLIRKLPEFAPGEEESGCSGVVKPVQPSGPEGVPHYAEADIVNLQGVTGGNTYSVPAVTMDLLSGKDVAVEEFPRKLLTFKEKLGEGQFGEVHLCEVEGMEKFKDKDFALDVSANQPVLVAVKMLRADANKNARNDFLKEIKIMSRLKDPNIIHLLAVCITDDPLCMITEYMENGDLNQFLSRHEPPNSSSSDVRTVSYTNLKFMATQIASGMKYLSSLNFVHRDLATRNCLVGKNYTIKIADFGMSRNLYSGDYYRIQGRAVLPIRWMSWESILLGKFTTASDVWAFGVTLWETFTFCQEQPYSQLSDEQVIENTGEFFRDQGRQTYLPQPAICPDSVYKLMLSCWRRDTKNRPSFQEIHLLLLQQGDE
Nature of the experiment: LanthaScreen kinase activity assay (Invitrogen), DDR2. Type of experiment: biochemical. The conditions noted are these: read-out: Enzymatic IC50 values DDR2. The protocol:
(§1) IC50 values were determined by Invitrogen using a LanthaScreen kinase activity assay.
(§2) Figure S2. Inhibition of DDR1 and DDR2. (a) IC50 values for DDR1 inhibition determined by using a LanthaScreen kinase activity assay (Invitrogen). (b) IC50 values for DDR2 inhibition determined similarly.

The target of experiment [1] is T2, DDR1 (Homo sapiens, UniProt Q08345).
T2 construct: purchased Invitrogen
T2 sequence (Q08345 19-913): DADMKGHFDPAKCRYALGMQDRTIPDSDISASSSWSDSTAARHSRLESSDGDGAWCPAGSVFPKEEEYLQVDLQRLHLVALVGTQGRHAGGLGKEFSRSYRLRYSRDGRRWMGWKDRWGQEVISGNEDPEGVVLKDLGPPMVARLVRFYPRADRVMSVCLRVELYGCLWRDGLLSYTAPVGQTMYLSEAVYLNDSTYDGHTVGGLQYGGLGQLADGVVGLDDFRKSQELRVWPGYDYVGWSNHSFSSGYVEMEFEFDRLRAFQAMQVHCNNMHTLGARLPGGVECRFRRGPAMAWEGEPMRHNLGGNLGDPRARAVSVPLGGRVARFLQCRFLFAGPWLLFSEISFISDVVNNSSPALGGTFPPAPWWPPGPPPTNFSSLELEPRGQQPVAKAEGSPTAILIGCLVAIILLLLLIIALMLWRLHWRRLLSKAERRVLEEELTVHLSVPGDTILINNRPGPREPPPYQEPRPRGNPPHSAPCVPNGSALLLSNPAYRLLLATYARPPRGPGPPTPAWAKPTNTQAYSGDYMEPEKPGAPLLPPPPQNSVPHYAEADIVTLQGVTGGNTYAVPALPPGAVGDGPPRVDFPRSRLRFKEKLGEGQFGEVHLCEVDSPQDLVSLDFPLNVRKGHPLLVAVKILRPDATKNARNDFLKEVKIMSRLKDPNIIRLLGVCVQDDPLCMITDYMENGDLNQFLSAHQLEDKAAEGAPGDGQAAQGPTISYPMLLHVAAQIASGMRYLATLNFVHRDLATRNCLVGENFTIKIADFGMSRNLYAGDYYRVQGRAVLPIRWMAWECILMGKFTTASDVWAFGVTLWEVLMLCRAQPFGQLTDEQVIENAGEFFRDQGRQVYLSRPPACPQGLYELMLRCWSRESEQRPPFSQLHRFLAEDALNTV
Kind of experiment: LanthaScreen kinase activity assay (Invitrogen), DDR1. Type of experiment: biochemical. To be noted: for IC50: LanthaScreen kinase activity assay, read-out: Enzymatic IC50 values DDR1; for activity of analogs against DDR1 kinase activity (in words): removal of the trifluoromethyl group. The procedure: as §1, §2

Experiment [2] concerns the target T2, DDR1. Set-up: method as in PMID 23275061. The conditions noted are these: cited from earlier work.
Experiment [3] has as its target T2, DDR1. Set-up: method as in PMID 23275061. To be noted: cited from earlier work. This is another data set of the same source.
The test system of another experiment is ABL. Also noted: method as in PMID 23899692. The conditions noted are these: quoted for selectivity relative to DDR1; cited from earlier work.

The values that follow come from article PMC4058747, “Structural Mechanisms Determining Inhibition of the Collagen Receptor DDR1 by Selective and Multi-Targeted Type II Kinase Inhibitors” (Journal of Molecular Biology, 2014).

Where two headings read alike, the source gives them in different places.

`Cc1ccc(NC(=O)c2cc(N3CCN(CCO)CC3)cc(C(F)(F)F)c2)cc1Oc1ccc2c(c1)CC(=O)N2` [Compound 3]: the IC50 was found to be 546 nM on DDR2 and 182 nM at DDR1 [1].
In the case of `CCN1CCN(c2cc(C(=O)Nc3ccc(C)c(Oc4ccc5c(c4)CC(=O)N5)c3)cc(C(F)(F)F)c2)CC1` [Compound 4], the IC50 on DDR2 turned out to be 385 nM; at DDR1 [1], 150 nM.
As for `CCN1CCN(Cc2ccc(F)c(C(=O)Nc3ccc(C)c(Oc4ccc5c(c4)CC(=O)N5)c3)c2)CC1` [Compound 7], the IC50 at DDR2 is > 10000 nM; at DDR1 [1], 8940 nM. For the same compound, the “activity of analogs against DDR1 kinase activity (in words)” value at DDR1 [1] is “inactive”.
`Cc1ccc(C(=O)Nc2ccc(Oc3cc4cnn(C)c4cc3-c3cn[nH]c3)c(F)c2)c(=O)n1-c1ccc(F)cc1` [LY2801653]: the IC50 on DDR1 [2] is < 1 nM. Also, on DDR1 [3], the EC50 is < 1 nM.
Take `Cc1ccc(NC(=O)c2cccc(C(C)(C)C#N)c2)cc1Oc1ccc2c(c1)CC(=O)N2` [Compound 5]: the IC50 is 1020 nM on DDR2 and 174 nM on DDR1 [1].
As to `CCN1CCN(Cc2ccc(C(=O)Nc3ccc(C)c(Oc4ccc5c(c4)CC(=O)N5)c3)cc2C(F)(F)F)CC1` [DDR1-IN-1], the IC50 was 1800 nM in the experiment with ABL and 413 nM on DDR2.
Regarding `CCN1CCN(Cc2ccc(NC(=O)Nc3ccc(C)c(Oc4ccc5c(c4)CC(=O)N5)c3)cc2C(F)(F)F)CC1` [Compound 1], the IC50 was 785 nM on DDR2 and 262 nM on DDR1 [1].
As to `CCN1CCN(Cc2ccc(C(=O)Nc3ccc(C)c(Oc4ccc5c(c4)CC(=O)N5)c3)c(F)c2)CC1` [Compound 6], the IC50 on DDR2 was > 10000 nM. At DDR1 [1], the IC50 was > 10000 nM and the “activity of analogs against DDR1 kinase activity (in words)” value is “inactive”.
For `Cc1ccc(NC(=O)c2ccc(OC3CCN(C)CC3)c(C(F)(F)F)c2)cc1Oc1ccc2c(c1)CC(=O)N2` [Compound 2], the IC50 at DDR2 was 338 nM; on DDR1 [1] it was 115 nM.
